In PubChem BioAssay AID1963845 (Molecular Pharmacology Branch, DTP, NCI, 2024):

Tested on: 429239-143-T-J1-PDC complex spheroid viability
Test: Anticancer human tumor 429239-143-T-J1-PDC patient-derived small cell lung carcinoma cell line growth inhibition [POLQ]
Conditions: for IC50: curve of first compound; for viability, T/C: stronger effect = lower value
Method in brief: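 Three-cell-type spheroids modelling solid tumor plus stroma served as the readout system; POL inhibitors were tested individually and in combination, concentration ranges set by clinical Cmax where known.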

[1] = second compound 0.0316 µM, first compound 0.0316 µM
[2] = second compound 0.0316 µM, first compound 0.1 µM
[3] = second compound 0.0316 µM, first compound 0.316 µM
[4] = second compound 0.0316 µM, first compound 1 µM
[5] = second compound 0.1 µM, first compound 0.0316 µM
[6] = second compound 0.1 µM, first compound 0.1 µM
[7] = second compound 0.1 µM, first compound 0.316 µM
[8] = second compound 0.1 µM, first compound 1 µM
[9] = second compound 0.316 µM, first compound 0.0316 µM
[10] = second compound 0.316 µM, first compound 0.1 µM
[11] = second compound 0.316 µM, first compound 0.316 µM
[12] = second compound 0.316 µM, first compound 1 µM
[13] = second compound 1 µM, first compound 0.0316 µM
[14] = second compound 1 µM, first compound 0.1 µM
[15] = second compound 1 µM, first compound 0.316 µM
[16] = second compound 1 µM, first compound 1 µM
[17] = second compound 3.16 µM, first compound 0.0316 µM
[18] = second compound 3.16 µM, first compound 0.1 µM
[19] = second compound 3.16 µM, first compound 0.316 µM
[20] = second compound 3.16 µM, first compound 1 µM
[21] = second compound 10 µM, first compound 0.0316 µM
[22] = second compound 10 µM, first compound 0.1 µM
[23] = second compound 10 µM, first compound 0.316 µM
[24] = second compound 10 µM, first compound 1 µM
[25] = second compound 0.0316 µM, first compound 3.16 µM
[26] = second compound 0.0316 µM, first compound 10 µM
[27] = second compound 0.1 µM, first compound 3.16 µM
[28] = second compound 0.1 µM, first compound 10 µM
[29] = second compound 0.316 µM, first compound 3.16 µM
[30] = second compound 0.316 µM, first compound 10 µM
[31] = second compound 1 µM, first compound 3.16 µM
[32] = second compound 1 µM, first compound 10 µM
[33] = second compound 3.16 µM, first compound 3.16 µM
[34] = second compound 3.16 µM, first compound 10 µM
[35] = second compound 10 µM, first compound 3.16 µM
[36] = second compound 10 µM, first compound 10 µM
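Note: luminescence signal used as surrogate measure of viable cells; spheroids exposed to compounds for seven days before readout.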
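Throughout, for viability, T/C: 100% = DMSO vehicle control viability as luminescence relative to vehicle.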

With `COc1cccc(OCCCN)c1-c1cc(Nc2cnc(C#N)cn2)n[nH]1` + Cc1cccc(N(C)C(=O)C2C(O)CCN2c2nc(C)cc(C(F)(F)F)c2C#N)c1 the IC50 (second compound 0.0316 µM) was 377 nM, the IC50 (second compound 0.1 µM) was 339 nM and the IC50 (second compound 0.316 µM) was 248 nM. It also gave an IC50 (second compound 1 µM) of 256 nM, an IC50 (second compound 3.16 µM) of 273 nM and an IC50 (second compound 10 µM) of 227 nM. It also gave a viability, T/C (second compound 0.0316 µM, first compound 0.00316 µM) of 101%, a viability, T/C (second compound 0.0316 µM, first compound 0.01 µM) of 110% and a viability, T/C [1] of 87.7%. For the same compound, the viability, T/C [2] was 73.1%, the viability, T/C [3] was 52.7% and the viability, T/C [4] was 39.3%. It also gave a viability, T/C (second compound 0.1 µM, first compound 0.00316 µM) of 101%, a viability, T/C (second compound 0.1 µM, first compound 0.01 µM) of 106% and a viability, T/C [5] of 92.9%. It also gave a viability, T/C [6] of 72%, a viability, T/C [7] of 52.7% and a viability, T/C [8] of 36.7%. For the same compound, the viability, T/C (second compound 0.316 µM, first compound 0.00316 µM) was 106%, the viability, T/C (second compound 0.316 µM, first compound 0.01 µM) was 108% and the viability, T/C [9] was 86.4%. It also gave a viability, T/C [10] of 67.2%, a viability, T/C [11] of 46.6% and a viability, T/C [12] of 32%. The viability, T/C (second compound 1 µM, first compound 0.00316 µM) was 108%, the viability, T/C (second compound 1 µM, first compound 0.01 µM) was 105% and the viability, T/C [13] was 90.8%. It also gave a viability, T/C [14] of 68.1%, a viability, T/C [15] of 46.5% and a viability, T/C [16] of 33.1%. For the same compound, the viability, T/C (second compound 3.16 µM, first compound 0.00316 µM) was 117%, the viability, T/C (second compound 3.16 µM, first compound 0.01 µM) was 108% and the viability, T/C [17] was 93.8%. It also gave a viability, T/C [18] of 65.4%, a viability, T/C [19] of 49.8% and a viability, T/C [20] of 34.9%. The viability, T/C (second compound 10 µM, first compound 0.00316 µM) was 118%, the viability, T/C (second compound 10 µM, first compound 0.01 µM) was 92.1% and the viability, T/C [21] was 92.1%. The viability, T/C [22] was 66.4%, the viability, T/C [23] was 39.3% and the viability, T/C [24] was 27.7%.
With `Nc1ccn(C2OC(CO)C(O)C2(F)F)c(=O)n1` (stereo unspecified) + COC1C(OC(N)=O)C(O)C(Oc2ccc3c(O)c(NC(=O)c4ccc(O)c(CC=C(C)C)c4)c(=O)oc3c2C)OC1(C)C the IC50 (second compound 0.0316 µM) was under 31.6 nM, the IC50 (second compound 0.1 µM) was under 31.6 nM and the IC50 (second compound 0.316 µM) was under 31.6 nM. For the same compound, the IC50 (second compound 1 µM) was under 31.6 nM, the IC50 (second compound 3.16 µM) was under 31.6 nM and the IC50 (second compound 10 µM) was under 31.6 nM. It also gave a viability, T/C [1] of 23.4%, a viability, T/C [2] of 19.2% and a viability, T/C [3] of 19.7%. The viability, T/C [4] was 16.5%, the viability, T/C [25] was 17.5% and the viability, T/C [26] was 16.4%. It also gave a viability, T/C [5] of 15.1%, a viability, T/C [6] of 17.8% and a viability, T/C [7] of 18.2%. The viability, T/C [8] was 17.4%, the viability, T/C [27] was 17.3% and the viability, T/C [28] was 16.1%. It also gave a viability, T/C [9] of 22.2%, a viability, T/C [10] of 17.1% and a viability, T/C [11] of 16.7%. It also gave a viability, T/C [12] of 18.4%, a viability, T/C [29] of 16.9% and a viability, T/C [30] of 14.8%. The viability, T/C [13] was 17.4%, the viability, T/C [14] was 17.4% and the viability, T/C [15] was 17.8%. For the same compound, the viability, T/C [16] was 16.1%, the viability, T/C [31] was 18.4% and the viability, T/C [32] was 21%. It also gave a viability, T/C [17] of 14.9%, a viability, T/C [18] of 13.9% and a viability, T/C [19] of 19.1%. The viability, T/C [20] was 12.5%, the viability, T/C [33] was 16.3% and the viability, T/C [34] was 13.5%. The viability, T/C [21] was 14.5%, the viability, T/C [22] was 16.9% and the viability, T/C [23] was 17.5%. The viability, T/C [24] was 20.4%, the viability, T/C [35] was 17% and the viability, T/C [36] was 17.1%.
Compound `CCCS(=O)(=O)Nc1ccc(F)c(C(=O)c2c[nH]c3ncc(-c4ccc(Cl)cc4)cc23)c1F` + Cc1cccc(N(C)C(=O)C2C(O)CCN2c2nc(C)cc(C(F)(F)F)c2C#N)c1 has an IC50 (second compound 0.0316 µM) of over 10000 nM, an IC50 (second compound 0.1 µM) of over 10000 nM and an IC50 (second compound 0.316 µM) of over 10000 nM. For the same compound, the IC50 (second compound 1 µM) was over 10000 nM, the IC50 (second compound 3.16 µM) was over 10000 nM and the IC50 (second compound 10 µM) was over 10000 nM. It also gave a viability, T/C [1] of 91.3%, a viability, T/C [2] of 106% and a viability, T/C [3] of 88.6%. It also gave a viability, T/C [4] of 93.4%, a viability, T/C [25] of 94% and a viability, T/C [26] of 81.7%. For the same compound, the viability, T/C [5] was 92.2%, the viability, T/C [6] was 89.9% and the viability, T/C [7] was 89.4%. It also gave a viability, T/C [8] of 97.2%, a viability, T/C [27] of 93.6% and a viability, T/C [28] of 82.8%. For the same compound, the viability, T/C [9] was 99.5%, the viability, T/C [10] was 92.8% and the viability, T/C [11] was 96.9%. The viability, T/C [12] was 94.1%, the viability, T/C [29] was 87.5% and the viability, T/C [30] was 79%. The viability, T/C [13] was 103%, the viability, T/C [14] was 87.7% and the viability, T/C [15] was 92.3%. For the same compound, the viability, T/C [16] was 91%, the viability, T/C [31] was 90.3% and the viability, T/C [32] was 77.5%. The viability, T/C [17] was 98.8%, the viability, T/C [18] was 96.9% and the viability, T/C [19] was 97.4%. The viability, T/C [20] was 94.2%, the viability, T/C [33] was 105% and the viability, T/C [34] was 79.5%. For the same compound, the viability, T/C [21] was 100%, the viability, T/C [22] was 105% and the viability, T/C [23] was 85.2%. The viability, T/C [24] was 93.5%, the viability, T/C [35] was 98.8% and the viability, T/C [36] was 81.9%.
